In series [1] the test system is Staphylococcus aureus ATCC 6538. Kind of series: germicidal efficiency test (modified serial dilution; time to complete sterilization), Table A. The class given is cell-based. The note with it: pH 7.0. On the procedure:
The compounds are thus useful as bactericidal agents.
(§1) The compounds of the invention and certain reference compounds were tested in the germidical efficiency test, a modification of the standard serial dilution test, against Staphylococcus aureus ATCC 6538. In the germicidal efficiency test, instead of determining the minimum inhibitory concentration as in the serial dilution test procedure, the time required to effect complete sterilization of the micro-organism when exposed to a given concentration of the test substance is determined. This procedure affords a basis of comparison of the time dependent efficacies of the various test substances which gives a measure not only of the germidical efficacy of the test species but, since as will be seen germicidal efficiency of the N-chloro compounds generally tends to diminish with time, apparently owing to decomposition of, and therefore dilution of, the active species, the test procedure also provides an indication of the efficacy to be expected at varying time intervals after solution of the test species in the application medium. The test procedure is described as follows: A stock solution of known concentration of each compound to be tested was prepared in 0.1M sodium dihydrogen phosphate buffered to pH 7.0. To 5 ml. of the test solution was added 0.2 ml. of an overnight broth culture containing from 6×10^6 to 8×10^6 organisms/ml. of Staphylococcus aureus ATCC 6538 and 5 g. of gelysate peptone and 3 g. of beef extract per 1000 ml. of water. At time intervals of 0.5, 1, 2, 3, 4, 5, 6, 7, 8, 9, 10, 15 and 30 minutes, a loop of this suspension was subcultured into 5 ml. of sterile nutrient broth (5 g. of gelysate peptone and 3 g. of beef extract/1000 ml. of water), and the samples were incubated at 37° C. for 7 days with daily observation for evidence of bacterial growth. The time interval in which no bacterial growth was observed after the incubation period in a particular sample was recorded as the end point.
(§2) The germicidal kill times so-obtained at various concentrations of the compounds of the invention and of certain reference compounds are given in Table A below. The compounds are identified in each case by the Example number above where the compounds are described. Here and elsewhere in the specification that follows, concentrations are expressed in parts per million (ppm) of "positive" chlorine, which was determined in each instance by addition of excess aqueous potassium iodide to an acidified solution of the test compound and titration of the iodine liberated with standard sodium thiosulfate solution.

For series [2] the test system is unchanged. Kind of series: contact germicidal (bactericidal) time before and after 14 day incubation of solutions at 40° C., Table B. The note with it: pH 7.0; for Bc Time, final: after 14 day incubation at 40° C.; for Bc Time, initial: before incubation, at initial ppm +Cl of the same line; for bactericidal activity after the test period (in words): after 14 days at 40° C. The class given is cell-based. On the procedure: as §1
(§3) The stabilities and the time-dependent efficacies of the claimed and reference species were determined by comparing the contact germicidal times and the initial and final concentrations of positive chlorine in solutions of the test species in 0.1M sodium dihydrogen phosphate buffered to pH 7.0 before and after 14 day incubation of the solutions at 40° C. The results are given in Table B below, where the columns headed "Bc Time" refers to the bactericidal time in minutes.

Series [3] in a line: positive chlorine concentration before and after 14 day incubation of solutions at pH 7.0, 40° C., Table B. The class given is physicochemical. The note with it: for Final Concn. of positive chlorine: after 14 day incubation at 40° C.; for Final Concn. of positive chlorine / Initial Concn. of positive chlorine: 0.1M phosphate pH 7.0; for Initial Concn. of positive chlorine: before incubation; for decomposition over the test period (in words): 14 days, 40° C., pH 7.0. On the procedure: as §2, §3

Series [4] in a line: stability in the neat state (% chlorine by iodometric titration), Table D. The class given is physicochemical. On the procedure: In those instances, the data were acquired at ambient temperature (approximately 23° C.). The method used was similar to that described above in which the rate of disappearance of "positive" chlorine was followed iodometrically by titration of iodine liberated from added potassium iodide with standard sodium thiosulfate solution. Samples of the compounds were individually sealed in ampoules and stored in the dark at 23° C. or 40° C. and weighed amounts removed from time to time for analysis.
For each of the compounds analyzed as indicated above, percent chlorine was plotted as ordinate against time in days as abscissa on semi-logarithmic paper and the points connected by a smooth curve for each compound.

The nature of series [5]: hydrolytic stability in 0.1M sodium dihydrogen phosphate pH 7.0 at 40° (first-order kinetics), Table C. The class given is physicochemical. The note with it: for half-life: 0.1m phosphate buffer; for half-life / Rate Constant k: 0.1M phosphate pH 7.0, 40°; for Rate Constant k: first-order. On the procedure:
A further measure of the relative stabilities of the reference and claimed species was obtained by measuring the hydrolytic stability of the various species in 0.1M sodium dihydrogen phosphate buffered to pH 7.0 at 40°. For each species, the rate of change in the concentration of positive chlorine in the solution was measured by the volume of standard thiosulfate required to titrate a series of aliquots of a standard volume of the solution at various time intervals using potassium iodide/sodium thiosulfate as detailed above. The volumes of thiosulfate required to titrate each sample so obtained were interpreted as first-order kinetic processes. The hydrolytic stabilities of the reference and claimed species under the experimental conditions were characterized by the reaction rate constants and half-lives obtained from a linear regression analysis of the experimental data. The results obtained are given in Table C below and are also shown in FIG. 1 where the volumes in milliliters of standard thiosulfate required to titrate the positive chlorine in the various samples are plotted as ordinate against time in days as abscissa.

Where two headings read alike, the source gives them in different places. Some results are limits rather than exact numbers.

Consider `CCC1CN(Cl)C(=O)O1` (centres unmarked) [Example 1E, 3-Chloro-5-ethyl-2-oxazolidinone], for which the “Bactericidal Time” value stood at 6 min in series [1] (96 ppm +Cl), 2 min in series [1] (161 ppm +Cl), 3 min in series [1] (372 ppm +Cl) and 1 min in series [1] (535 ppm +Cl). The “Bc Time, final” value in series [2] is above 30 min. The “Bc Time, initial” value in series [2] stood at 1 min. For the same compound, the “Final Concn. of positive chlorine” value in series [3] came out at 15 ppm +Cl. Besides, in series [3], the “Initial Concn. of positive chlorine” value came to 535 ppm +Cl.

For the compound `CCC1(C)COC(=O)N1Cl` (centres unmarked) [Example 1H, 3-Chloro-4-ethyl-4-methyl-2-oxazolidinone], the “Bc Time, final” value in series [2] was 3 min. Further, in series [2], the “bactericidal activity after the test period (in words)” value is “retained the original level of bactericidal activity”. Besides, the “Bc Time, initial” value in series [2] was 3 min. Besides, the “decomposition over the test period (in words)” value in series [3] was “decomposed only slightly over the test period”. The “Final Concn. of positive chlorine” value in series [3] amounted to 553 ppm +Cl. In addition, in series [3], the “Initial Concn. of positive chlorine” value worked out at 555 ppm +Cl. Besides, the “stability in the neat state (in words)” value in series [4] is “surprising stability”. The “% Cl, neat” value in series [4] (40° C., 0 Days) is on record as 21.7%; in series [4] (40° C., 2 Days), 23.6%; in series [4] (40° C., 5 Days) it was 21.1%; in series [4] (40° C., 10 Days), 20.7%; in series [4] (40° C., 14 Days), 21.0%; in series [4] (40° C., 18 Days), 20.6%. Also, the “% Cl, neat” value amounted to 18.2% in series [4] (40° C., 25 Days); 22.3% in series [4] (40° C., 39 Days); 20.2% in series [4] (40° C., 53 Days); 19.6% in series [4] (40° C., 164 Days).

As usually defined, the half-life is the time needed for the level to fall by half in the phase considered. In the case of `CC1OC(=O)N(Cl)C1C` (centres unmarked) [Example 1C, 3-Chloro-4,5-dimethyl-2-oxazolidinone], the “Bactericidal Time” value in series [1] (117 ppm +Cl) came out at 10 min; in series [1] (295 ppm +Cl) it was 5 min; in series [1] (490 ppm +Cl), 4 min. Also, the “Bc Time, initial” value in series [2] is 4 min. The “Final Concn. of positive chlorine” value in series [3] is 51 ppm +Cl. Moreover, the “Initial Concn. of positive chlorine” value in series [3] is reported as 490 ppm +Cl. Also, the half-life in series [5] (hydrolysis) is 2310 min. The “Rate Constant k” value in series [5] (hydrolysis) was 0.018 h⁻¹. For the same compound, the “% Cl, neat” value is 21.8% in series [4] (23° C., 0 Hrs.); 20.8% in series [4] (23° C., 3 Hrs.); 8.2% in series [4] (23° C., 5 Hrs.); 0.47% in series [4] (23° C., 7.5 Hrs.); 0.17% in series [4] (23° C., 24 Hrs.).

Turning to `CC1(C)CN(Cl)C(=O)O1` [Example 1G, 3-Chloro-5,5-dimethyl-2-oxazolidinone], the “Bactericidal Time” value in series [1] (473 ppm +Cl) was found to be 7 min. Also, the “bactericidal activity after the test period (in words)” value in series [2] is reported as “retained a good measure of bactericidal activity superior to each of the reference species”. In series [2], the “Bc Time, initial” value is 7 min. Also, the “decomposition over the test period (in words)” value in series [3] is listed as “substantially decomposed over the test period”. In addition, the “Final Concn. of positive chlorine” value in series [3] is given as 43 ppm +Cl. Besides, in series [3], the “Initial Concn. of positive chlorine” value was 473 ppm +Cl. Moreover, the half-life in series [5] (hydrolysis) was 5200 min. Besides, the “Rate Constant k” value in series [5] (hydrolysis) was determined as 0.008 h⁻¹. Besides, in series [5] (hydrolysis, pH 7.0, 40°), the “half-life relative to the half-lives of the reference species” value is reported as “around twice to eight times as great”. In series [5] (pH 7.0, 40°), the “hydrolytic stability (in words)” value is “somewhat less stable than the corresponding 4,4-dimethyl compound”. For the same compound, the “% Cl, neat” value in series [4] (40° C., 0 Days) worked out at 19.6%; in series [4] (40° C., 1 Day), 22.1%; in series [4] (40° C., 4 Days), 23.7%; in series [4] (40° C., 7 Days) it was 16.5%; in series [4] (40° C., 11 Days), 18.1%; in series [4] (40° C., 15 Days) it was 14.4%. For the same compound, the “% Cl, neat” value in series [4] (40° C., 19 Days) stood at 10.0%; in series [4] (40° C., 22 Days), 0%. Besides, the “stability in the neat state (in words)” value in series [4] (neat, 40° C.) is “surprising stability”.

In the case of `CC1COC(=O)N1Cl` (centres unmarked) [Example 1B, 3-Chloro-4-methyl-2-oxazolidinone], the “Bactericidal Time” value in series [1] (131 ppm +Cl) worked out at 7 min; in series [1] (303 ppm +Cl), 4 min; in series [1] (610 ppm +Cl) it was 1 min. Besides, the “Bc Time, final” value in series [2] is above 30 min. Also, the “Bc Time, initial” value in series [2] was 1 min. For the same compound, in series [3], the “Final Concn. of positive chlorine” value is listed as 14 ppm +Cl. In addition, the “Initial Concn. of positive chlorine” value in series [3] is reported as 610 ppm +Cl. In series [5] (hydrolysis), this compound had a half-life of 654 min. Further, the “Rate Constant k” value in series [5] (hydrolysis) amounted to 0.0633 h⁻¹. Also, the “% Cl, neat” value stood at 26.5% in series [4] (23° C., 0 Hrs.); 25.9% in series [4] (23° C., 3 Hrs.); 25.3% in series [4] (23° C., 5 Hrs.); 25.0% in series [4] (23° C., 6.5 Hrs.); 25.0% in series [4] (23° C., 9 Hrs.); 24.1% in series [4] (23° C., 10.5 Hrs.). The “% Cl, neat” value in series [4] (23° C., 21.5 Hrs.) came to 21.7%; in series [4] (23° C., 24.5 Hrs.) it was 21.1%; in series [4] (23° C., 29 Hrs.) it was 14.4%; in series [4] (23° C., 30 Hrs.) it was 12.4%; in series [4] (23° C., 32 Hrs.), 6.1%; in series [4] (23° C., 35 Hrs.) it was 2.0%. Moreover, in series [4] (23° C., 45 Hrs.), the “% Cl, neat” value is 0%.

With `CC1CN(Cl)C(=O)O1` (centres unmarked) [Example 1D, 3-Chloro-5-methyl-2-oxazolidinone], in series [1] (74 ppm +Cl), the “Bactericidal Time” value was above 30 min. In addition, in series [1] (383 ppm +Cl), the “Bactericidal Time” value was determined as 2 min. The “Bactericidal Time” value in series [1] (548 ppm +Cl) was found to be 0.5 min. In series [2], the “Bc Time, final” value is above 30 min and the “Bc Time, initial” value stood at 0.5 min. In series [3], the “Final Concn. of positive chlorine” value turned out to be 34 ppm +Cl and the “Initial Concn. of positive chlorine” value is on record as 548 ppm +Cl.

The values are drawn from patent US4000293A, “Method of inhibiting bacterial growth with certain selected 3-chloro-2-oxazolidinones” (Interx Research Corporation, priority 1975, dated 1976).
